In patent US11840686B2, “Modulation of prekallikrein (PKK) expression” (Ionis Pharmaceuticals, Inc., priority 2013, dated 2023):
Strand notation (5' to 3'): a small letter for the sugar, then the base; units joined by * are phosphorothioate-linked, units joined directly phosphodiester-linked; [ ] holds rarer units or linkages, { } end groups; capitals alone tell only the bases. e = 2'-O-(2-methoxyethyl) (MOE); k = constrained ethyl (cEt); [5mC] = 5-methylcytosine; d = 2'-deoxy (DNA)

test system: human PKK mRNA; assay: Antisense inhibition of human PKK mRNA in HepaRG cells, 1,000 nM, MOE/deoxy/cEt oligonucleotides (Example 3); type: cell-based; conditions: Table 27; HepaRG cells, 1,000 nM antisense oligonucleotide; human PKK mRNA
In short: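 HepaRG cells at 20,000 per well electroporated with 1,000 nM 16-mer MOE/cEt/deoxy gapmers (phosphorothioate, 5-methylcytosine). After about 24 h, PKK mRNA measured by qRT-PCR with primer probe set RTS3454, normalized to RIBOGREEN total RNA. Reported as percent inhibition versus untreated cells.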

In order of falling “% inhibition” value:
1. 548377 (eG*eT*kG*dT*dG*d[5mC]*dT*dG*dA*dG*dG*dT*dT*kT*kG*e[5mC]; antisense) [compound 548377]  80%
2. 548344 (antisense eG*eG*k[5mC]*dA*dA*d[5mC]*dT*dA*dT*dG*dT*dT*d[5mC]*kT*k[5mC]*eA) [compound 548344]  76%
3. 548357 (antisense eG*eA*k[5mC]*dG*dA*d[5mC]*dT*dG*d[5mC]*d[5mC]*d[5mC]*dT*dG*kT*kG*e[5mC]) [compound 548357]  69%
4. 548376 (eG*e[5mC]*k[5mC]*dT*dT*dT*dG*dA*d[5mC]*d[5mC]*dT*dT*dT*k[5mC]*kG*e[5mC]; antisense) [compound 548376]  65%
5. 548356 (antisense eT*eG*kT*dT*dG*dG*dT*d[5mC]*dA*dG*d[5mC]*dA*dT*kT*k[5mC]*eA) [compound 548356]  63%
6. 548349 (antisense eT*e[5mC]*k[5mC]*dA*dG*dA*dA*dT*dA*d[5mC]*dT*dG*d[5mC]*k[5mC]*k[5mC]*e[5mC]) [compound 548349]  61%
7. 548372 (eG*eA*kT*dA*d[5mC]*d[5mC]*dT*dT*dT*d[5mC]*d[5mC]*dA*d[5mC]*kT*k[5mC]*e[5mC]; antisense) [compound 548372]  61%
8. 548368 (eG*eT*kG*dT*dT*d[5mC]*dA*dT*dA*d[5mC]*dG*dG*dA*kA*kG*e[5mC]; antisense) [compound 548368]  59%
9. 548371 (e[5mC]*eG*kA*dT*dG*dA*dG*dT*dT*dG*dG*dG*d[5mC]*kA*kG*eG; antisense) [compound 548371]  57%
10. 548345 (antisense e[5mC]*eT*kA*dA*d[5mC]*dT*d[5mC]*d[5mC]*dA*dT*d[5mC]*dA*d[5mC]*kT*kG*e[5mC]) [compound 548345]  55%
11. 548365 (antisense eT*eG*kT*dA*d[5mC]*dT*d[5mC]*d[5mC]*dA*d[5mC]*d[5mC]*dT*d[5mC]*kA*k[5mC]*eG) [compound 548365]  55%
12. 548370 (eA*e[5mC]*kG*dA*dA*dG*dT*d[5mC]*dT*d[5mC]*dT*dT*dT*k[5mC]*k[5mC]*eT; antisense) [compound 548370]  53%
13. 548361 (antisense e[5mC]*eT*kT*dA*dT*d[5mC]*dA*dG*dT*d[5mC]*d[5mC]*d[5mC]*dA*kG*kT*e[5mC]) [compound 548361]  52%
14. 548367 (antisense eG*eT*kT*d[5mC]*dT*dT*dG*dA*dG*dT*dG*dT*dA*kG*kA*eG) [compound 548367]  52%
15. 548369 (eG*eT*kT*dG*dG*dG*dA*dT*dG*d[5mC]*dG*dA*d[5mC]*kT*k[5mC]*eT; antisense) [compound 548369]  50%
16. 548378 (eG*e[5mC]*kA*dA*dG*dA*dT*dG*d[5mC]*dA*dT*dG*d[5mC]*kA*kG*e[5mC]; antisense) [compound 548378]  49%
17. 548353 (antisense e[5mC]*eT*kG*d[5mC]*dT*dG*dG*dT*dT*dG*dA*dG*dA*kA*kT*e[5mC]) [compound 548353]  48%
18. 548352 (antisense eG*eA*kG*dA*dG*dA*dG*dA*dT*dG*dT*dT*d[5mC]*k[5mC]*k[5mC]*eT) [compound 548352]  47%
19. 548355 (antisense eG*e[5mC]*kA*dT*d[5mC]*d[5mC]*dT*d[5mC]*d[5mC]*d[5mC]*dT*dA*dG*kT*kT*eG) [compound 548355]  47%
20. 548360 (antisense e[5mC]*eA*kA*dG*dA*d[5mC]*dA*dT*d[5mC]*dA*dG*dT*dA*kG*k[5mC]*eT) [compound 548360]  45%
21. 548379 (eA*eT*k[5mC]*dG*dA*dA*d[5mC]*dT*d[5mC]*dT*dG*d[5mC]*dT*kT*kG*eA; antisense) [compound 548379]  44%
22. 548354 (antisense eA*eT*kG*dT*d[5mC]*d[5mC]*d[5mC]*d[5mC]*dA*dG*dT*dG*dG*kA*kA*eG) [compound 548354]  41%
23. 548374 (eG*e[5mC]*kA*d[5mC]*d[5mC]*d[5mC]*dT*dT*dT*dT*d[5mC]*dA*dT*kT*kG*eA; antisense) [compound 548374]  41%
24. 548339 (antisense eA*e[5mC]*kA*dT*dG*dT*dG*dG*dG*dA*dT*d[5mC]*dA*kG*kA*eG) [compound 548339]  37%
25. 548363 (antisense e[5mC]*eA*kG*d[5mC]*dA*dG*dG*d[5mC]*dT*d[5mC]*dA*dA*dA*kG*kT*eG) [compound 548363]  37%
26. 548340 (antisense eG*eA*kT*dG*dA*dT*d[5mC]*d[5mC]*dT*d[5mC]*dA*d[5mC]*dA*kT*kA*e[5mC]) [compound 548340]  35%
27. 548346 (antisense eT*e[5mC]*k[5mC]*d[5mC]*d[5mC]*dA*dA*dT*dA*d[5mC]*dT*dT*dG*k[5mC]*kT*eG) [compound 548346]  35%
28. 548351 (antisense e[5mC]*eT*kG*dG*dA*dA*dA*d[5mC]*dG*dA*dG*dA*d[5mC]*kA*k[5mC]*eA) [compound 548351]  33%
29. 548362 (antisense eG*eA*k[5mC]*dA*dA*d[5mC]*d[5mC]*d[5mC]*dA*dT*d[5mC]*dA*dG*kT*kT*eG) [compound 548362]  33%
30. 548347 (antisense eG*e[5mC]*kT*dG*dT*dT*d[5mC]*dT*dA*dA*dG*d[5mC]*dG*kA*kG*eA) [compound 548347]  31%
31. 548341 (antisense eT*eA*kG*dA*dA*d[5mC]*d[5mC]*dT*dT*d[5mC]*d[5mC]*dT*d[5mC]*k[5mC]*kA*e[5mC]) [compound 548341]  30%
32. 548364 (antisense eT*eG*kG*d[5mC]*dT*dA*dA*dG*dT*d[5mC]*dA*dG*dG*k[5mC]*k[5mC]*e[5mC]) [compound 548364]  30%
33. 548350 (antisense eG*e[5mC]*kG*d[5mC]*dT*dA*dA*d[5mC]*d[5mC]*dT*d[5mC]*dA*dT*kA*kA*eA) [compound 548350]  29%
34. 548375 (eT*e[5mC]*kG*dA*d[5mC]*dT*dT*d[5mC]*dT*d[5mC]*d[5mC]*dT*dG*kT*k[5mC]*eT; antisense) [compound 548375]  27%
35. 548373 (eT*e[5mC]*k[5mC]*d[5mC]*d[5mC]*dA*dA*dG*dA*dT*dT*dA*dT*kG*kT*eG; antisense) [compound 548373]  16%
36. 548337 (antisense eT*eA*k[5mC]*d[5mC]*dG*d[5mC]*dT*dG*dG*dG*dT*dG*d[5mC]*kG*kG*eT) [compound 548337]  10%
37. 548380 (eG*e[5mC]*k[5mC]*d[5mC]*dA*dG*dT*dT*dT*dT*dG*dG*d[5mC]*kA*kA*e[5mC]; antisense) [compound 548380]  7%
38. 548366 (antisense eA*eG*k[5mC]*dA*dA*dG*d[5mC]*dT*dA*dA*dG*dT*dG*kA*kG*eT) [compound 548366]  5%
39. 548342 (antisense eG*eG*kA*dA*dG*dA*d[5mC]*dT*dT*d[5mC]*d[5mC]*d[5mC]*dT*k[5mC]*kT*eG) [compound 548342]  0%
40. 548358 (antisense eA*eT*kT*dT*dG*dG*dG*d[5mC]*d[5mC]*dT*dA*dG*dT*kG*kG*eT) [compound 548358]  0%
41. 548359 (antisense e[5mC]*e[5mC]*kT*dA*dG*dT*d[5mC]*d[5mC]*dT*d[5mC]*dA*dA*dG*kT*kT*eT) [compound 548359]  0%
42. 548381 (e[5mC]*e[5mC]*k[5mC]*dA*d[5mC]*dT*dA*d[5mC]*d[5mC]*dA*dT*dT*dT*kG*kG*eG; antisense) [compound 548381]  0%

same assay, conditions: Table 30; human PKK mRNA, HepaRG cells, 1,000 nM antisense oligonucleotide

In order of rising “% inhibition” value:
1. 548385 (eT*e[5mC]*k[5mC]*dT*dG*dG*dA*dG*dG*d[5mC]*dA*d[5mC]*d[5mC]*kA*kA*eT; antisense) [compound 548385]  0%
2. 548386 (eA*eG*k[5mC]*d[5mC]*d[5mC]*dT*dG*dT*dT*dT*dG*dG*dT*kT*kT*eT; antisense) [compound 548386]  0%
3. 548388 (eA*eA*kG*dA*dG*dG*dA*dT*dG*dT*d[5mC]*dA*dG*kG*k[5mC]*eT; antisense) [compound 548388]  4%
4. 548389 (eT*eT*kG*dA*dG*dG*dA*dA*dA*dG*dA*d[5mC]*d[5mC]*kT*kG*e[5mC]; antisense) [compound 548389]  11%
5. 548382 (eG*eA*kG*d[5mC]*dA*dA*dA*dT*dA*d[5mC]*dA*dG*dT*k[5mC]*k[5mC]*eA; antisense) [compound 548382]  19%
6. 548387 (eT*eG*kA*dA*dG*dG*dG*d[5mC]*dG*dA*dG*dG*d[5mC]*kG*k[5mC]*eA; antisense) [compound 548387]  22%
7. 548393 (e[5mC]*eG*k[5mC]*dT*dT*d[5mC]*dA*dG*dG*dA*dA*dA*dG*k[5mC]*kG*eA; antisense) [compound 548393]  26%
8. 548392 (eG*eT*kA*dG*dA*dG*d[5mC]*dA*dT*dG*dG*dA*dG*k[5mC]*kG*eA; antisense) [compound 548392]  31%
9. 548391 (eG*eT*kA*d[5mC]*dA*dT*dG*dA*d[5mC]*dT*d[5mC]*d[5mC]*dA*kG*kT*eG; antisense) [compound 548391]  34%
10. 548390 (eG*e[5mC]*kT*dG*dA*dG*dT*dG*dT*dG*dA*d[5mC]*dT*kT*kA*eA; antisense) [compound 548390]  43%
11. 548383 (eG*eT*k[5mC]*dT*d[5mC]*dG*dA*dT*dG*dG*d[5mC]*dA*dA*kG*k[5mC]*eT; antisense) [compound 548383]  49%
12. 548384 (e[5mC]*eT*k[5mC]*dA*d[5mC]*d[5mC]*dG*dG*dT*dA*d[5mC]*dT*d[5mC]*kT*kG*e[5mC]; antisense) [compound 548384]  49%
